According to US8586109B2, “Annatto extract compositions including tocotrienols and tocopherols and methods of use” (American River Nutrition, Inc., priority 2003, dated 2013):

Legend:
[1] = system: essential hypertension; test: Hypertension (Example 13); settings: in vivo
From the text: Also, C-5 unsubstituted tocols (i.e., all delta and gamma isomers) had this effect.

[2] = cited from earlier work
[3] = system: cholesterol; settings: Pearce et al. 1992; cited from earlier work
[4] = system: IKBKAP; settings: Anderson et al. 2003; cited from earlier work
[5] = system: spontaneous hypertensive rats (SHR); settings: Newaz and Nawal 1999; cited from earlier work
[6] = system: C-reactive protein; settings: higher dosage needed; cited from earlier work
[7] = some biologic systems; cited from earlier work

| Compound | NOS activity [1] | essential hypertension [1] | Biologic activity relative to alpha-T3 ([2]; greater than alpha-T3) | Biologic activity relative to gamma-T3 ([2]; greater than gamma-T3) | isomeric potency of cholesterol reduction (relative) [3] | increase of IKBKAP gene transcription [4] [fold] | development of increased blood pressure [1] | development of increased blood pressure [5] | required dosage to lower CRP to a comparable range, relative to annatto tocotrienols [6] | anti-oxidant power compared to alpha-T1 [7] |
| --- | --- | --- | --- | --- | --- | --- | --- | --- | --- | --- |
| CC(C)=CCC/C(C)=C/CC/C(C)=C/CC[C@]1(C)CCc2cc(O)cc(C)c2O1 [Delta-tocotrienol, delta-tocotrienol] | increased NOS activity | reduced essential hypertension | 4-10 times | 1-2 times | greater than gamma-T3 | 3.5 |  |  |  |  |
| CC(C)=CCC/C(C)=C/CC/C(C)=C/CC[C@]1(C)CCc2cc(O)c(C)c(C)c2O1 [Gamma-T3, gamma-tocotrienol] | increased NOS activity | reduced essential hypertension |  |  | five-fold greater than alpha-T3 |  | prevented the development of increased blood pressure | prevent the development of increased blood pressure |  |  |
| Cc1c(C)c2c(c(C)c1O)CC[C@@](C)(CCC[C@H](C)CCC[C@H](C)CCCC(C)C)O2 [alpha-T1, Alpha-tocopherol] |  |  |  |  |  |  |  |  | approximately 10 fold |  |
| Alpha-tocotrienol |  |  |  |  | at least five-fold less active |  |  |  |  | (40-60X in some biologic systems). First discovered to reduce cholesterol, |
